Measured values published in ChEMBL document CHEMBL3507680, “University of Dundee, Gates Library screen for HepG2 cell viability”.

Assay: Human HepG2 cell viability assay in 384 well format
Format: toxicity, cell-based
Design: dose 125 nL, time 70.5 hour; concentration not given beside the values
Details: HepG2 cells, read-out: Inhibition

SMILES | cytotoxicity at 70.5 h
O=C(NCCCN1CCCC1=O)Nc1ccc(Br)cc1Cl | -3.68%
CC(C)n1cc(N2CC(C(=O)N3CCN(C)CC3)CC2=O)cn1 (stereo not given) | -10.8%
CC(C)n1cc(N2CC(C(=O)N3CCCC3)CC2=O)cn1 (stereo not given) | -6.71%
COC(=O)CCn1ccc(=O)c2cc(OC)ccc21 | -0.582%
Oc1ccccc1-c1n[nH]c(C2CC2)n1 | 11.6%
Cc1cc2nc(O)c(O)nc2cc1S(=O)(=O)NC1CC1 | -12.3%
CCn1nc(C)c2nc(C(C)C)nc(NCCCO)c21 | -16.2%
CCCc1nc(NCCCO)c2c(n1)c(C)nn2CC | -14%
CCNC(=O)c1nnn(Cc2ccccc2)c1OC | -7.02%
CCN(CC)C(=O)c1nnn(Cc2ccccc2)c1OC | 0.599%
CC(=O)Nc1ncc(S(=O)(=O)Nc2ccc(F)cc2F)s1 | -0.452%
COC(=O)c1cccc(NS(=O)(=O)c2cnc(NC(C)=O)s2)c1 | -1.8%
O=C(Cn1cc(I)cn1)N1CCc2ccccc2C1 | -3.15%
CCc1nc(NCCCn2cccn2)c2c(n1)c(C)nn2C | -1.69%
CCc1nc(NCCCOC)c2c(n1)c(C)nn2C | -13.4%
CCn1nccc1CNC(=O)C(C)n1cc2c(n1)c(C)nn2C (stereo not given) | 3.69%
Cc1cc(C(F)(F)F)nn1CC(C)C(=O)Nc1ccncc1 (stereo not given) | 1.22%
Cc1cc(C(F)(F)F)nn1C(C)C(=O)Nc1ccncc1 (stereo not given) | 23.9%
COc1ccc(CNC(=O)c2nn(C)c3c2CS(=O)(=O)CC3)cc1OC | 1.56%
Cc1nn(C)c2c(N3CCN(C(=O)C4CCC4)CC3)ncnc12 | -5.94%
CN(C)C(=O)CNC(=O)CCn1ncc2c(Cl)cccc21 | -5.6%
O=C(NCc1ccccc1)c1nnc2ccc(N3CCOCC3)cc2n1 | 4.86%
CCCNC(=O)c1cnc(N(C)C)nc1COC | -5.33%

SMILES | cytotoxicity at 70.5 h
COc1ccccc1CNC(=O)Cn1ncc2c1c(C)nn2C | 0.128%
CCN(CC)C(=O)c1ccn(COc2cc(C)cc(C)c2)n1 | 4.47%
CCN(CC)CCNC(=O)c1ccn(COc2cc(C)cc(C)c2)n1 | -3.13%
CCCN1CCN(C(=O)C(C)n2cc(Br)cn2)CC1 (stereo not given) | -7.56%
Cc1cccc2c1cnn2CCCNC(=O)C(C)C | -10%
CC1(C)CC(N2Cc3nc(N)ncc3C2=O)CC(C)(C)N1 | -8%
CCOc1ccc(N2CCCN=C2NC(=O)c2cccc(Cl)c2)cc1 | -9.1%
CCOC(=O)CNC(=O)N1CCN(c2ncccn2)CC1 | -4.84%
CC(C)c1ccc(OCn2ccc(C(=O)N3CCCC3)n2)cc1 | -4.33%
Cc1nc(NCCc2ccc(Cl)cc2)cc(C(=O)N2CCOCC2)n1 | -7.59%
CC(C(=O)NCCCn1ccnc1)n1cc(Br)cn1 (stereo not given) | -9.82%
Cc1nn(CC(=O)N2CCN(c3ccccc3F)CC2)c(C)c1Cl | -2.28%
CCC(C)c1noc(C2CCN(C(=O)c3cccnc3)CC2)n1 (stereo not given) | -12.8%
CCn1cc(Br)c(C(=O)NCc2cnn(C)c2)n1 | -13.6%
CCn1cc(CN2C[C@@H]3CCCN3C[C@H]2CCSC)c(C)n1 | -4.8%
Cc1cc(N(C)C)nc(C2(C)CCCN2C(=O)c2ccccc2)n1 (stereo not given) | -8.94%
OCCN1CCC(c2cncc(-c3cccc(Cl)c3)n2)CC1 | -3.96%
c1cc(N2CCCC2c2cnccn2)ncn1 (stereo not given) | -10%
Cc1cc(N2CCCC2c2nccnc2C)ncn1 (stereo not given) | -5.86%
CN1CCCC1c1ccnc(C(=O)N(C)C2CCCCC2)c1 (stereo not given) | -11.9%
CC(=O)N1CCC(c2cc(Nc3ncccn3)nc(C)n2)C1 (stereo not given) | -6.88%
COCC(=O)N1CCCCC1c1ccnc(Nc2ncc(C)s2)n1 (stereo not given) | -0.578%
O=C(c1cncnc1)N1C[C@@H]2CC[C@H](Oc3cccc(F)c3)[C@@H]2C1 | -8.85%

SMILES | cytotoxicity at 70.5 h
Cc1cc(C)nc(Nc2cncc(C3CCCN(S(C)(=O)=O)C3)n2)n1 (stereo not given) | 33.8%
Cc1cccc(-c2cccc(CC3(C(=O)O)CCOCC3)c2)c1 | 9.91%
COCCN1CCC(c2cncc(N(C)C)n2)CC1 | 16.5%
O=C(C1CC1)N1CCC(c2nc(O)c3c(n2)CN(C2CCCC2)CC3)C1 (stereo not given) | 9.71%
COCCC(=O)N1CCC(c2nc(O)cc(-c3ccncc3)n2)C1 (stereo not given) | -11.8%
Cc1c(C2CCCN(C(=O)c3ccn(C)n3)C2)n2c(nc1=O)CCC2 (stereo not given) | -7.35%
CC(=O)Nc1nc(C2CCN(C(=O)Cc3ccccc3)CC2)cs1 | -5.09%
COCCN1CCCC(CCCc2ccccn2)(C(N)=O)C1 (stereo not given) | -6.05%
CC(=O)N1CCN(C(C)C)CC(COc2ccccc2)C1 (stereo not given) | -6.04%
COCCN1CCC(Cc2cncc(-c3ccc(C(=O)O)cc3)n2)CC1 | 8.54%
Cc1cc(CN2CCOC(C)(C(=O)N3CCOCC3)C2)no1 (stereo not given) | -2.61%
CC1(C(=O)N2CCOCC2)CN(Cc2cccnc2)CCO1 (stereo not given) | -8.77%
CN(C)C(=O)C1CN(Cc2ccsc2)CCN(S(C)(=O)=O)C1 (stereo not given) | -6.36%
CN(C)C(=O)C1CN(Cc2ccccn2)CCN(S(C)(=O)=O)C1 (stereo not given) | -3.97%
NC(=O)C1(CCCc2ccncc2)CCCN1 (stereo not given) | -3.08%
CN1CCC(c2cncc(N(C)C)n2)CC1 | -4.58%
O=c1[nH]c(N2CCCCC2)nc2c1CCN(Cc1cccnc1)C2 | -6.55%
Cc1cc(-c2cnc(NC3CCCCC3)nc2-c2ccco2)on1 | -9.46%
Cc1c(C(=O)N2CCCC(n3nnc4cc(F)ccc43)C2)cnn1C (stereo not given) | -14.1%
C=Cn1cc(CN2CCc3nc(-c4cccnc4)nc(O)c3C2)c(C)n1 | -3.49%
Cc1cc(-c2cnc(NCc3ccncc3)nc2C(C)C)on1 | 2.62%
O=c1[nH]c(-c2ccccn2)nc2c1CCN(Cc1cccc(O)c1)C2 | -4.95%
COc1ccc(CN2CCc3c(nc(-c4ccccn4)[nH]c3=O)C2)cc1 | 13.1%

SMILES | cytotoxicity at 70.5 h
Cn1cccc1CN1CCc2c(nc(-c3ccccn3)[nH]c2=O)C1 | -2.89%
Cc1occc1-c1nc(NC2CCCC2)ncc1-c1ccccn1 | 1.09%
Cn1cc(CN2CCCC(CCCc3ccccn3)(C(N)=O)C2)cn1 (stereo not given) | -8.02%
CN(C)C(=O)CN1CCC(c2cccc(Cc3ccc(F)cc3)n2)CC1 | 15.8%
CCCC(=O)N1CCN(Cc2cc(-c3ccncc3)nn2C)CC1 | 0.205%
CCC(CC)C(=O)N1CCN(Cc2cc(-c3ccncc3)nn2C)CC1 | 1.08%
O=C(CC1CCCC1)N1CCOC(c2nc(-c3ncccn3)no2)C1 (stereo not given) | -1.63%
Cc1noc2nc(C3CCCN(Cc4cccnc4)C3)cc(C(F)F)c12 (stereo not given) | -3.71%
O=C(C1CCCC1)N1CCCC(c2nc(O)cc(-c3ccncc3)n2)C1 (stereo not given) | 5.93%
CNC(=O)Nc1cnc2cc(Cl)ccc2c1O | 10%
OC1(Cn2ccc3ncccc32)CCN(Cc2cccs2)CC1 | -0.455%
Cc1cc(CN2CCC(O)(Cn3ccc4ncccc43)CC2)c(C)s1 | 4.82%
Cc1ccc(=O)n(CC2(O)CCN(Cc3cnc(N(C)C)nc3)CC2)n1 | 17.6%
O=C(c1ccncc1)N1CCCC(c2cc(C(F)F)n3ncnc3n2)C1 (stereo not given) | -3.18%
O=C(c1ccccn1)N1CCCC(c2cc(C(F)F)n3ncnc3n2)C1 (stereo not given) | -4.56%
CC1CCCN(Cc2c(C3CC3)[nH]c3ncccc23)C1 (stereo not given) | -4.53%
Cc1cc(-c2cnc(NC3CCCC3)nc2-c2ccoc2)on1 | -2.38%
Cc1ccc([C@]2(O)CC[C@H]3CN(Cc4ccncc4)C[C@H]32)nc1 | 36%
Cc1ccc([C@]2(O)CC[C@H]3CN(Cc4cccnc4)C[C@H]32)nc1 | 9.25%
O=C(c1ccco1)N1CCCC(c2cc(C(F)(F)F)n3ncnc3n2)C1 (stereo not given) | 28.3%
c1cnc2[nH]c(C3CCCC3)c(CN3CCOCC3)c2c1 | -9.59%
COc1ccc(C2CCCN2c2cnc3ccccc3n2)c(OC)c1 (stereo not given) | -4.21%
COc1cccc(CCNC(=O)c2ccc(=O)n(C)c2)c1 | -2.94%

SMILES | cytotoxicity at 70.5 h
N#Cc1cnc(NCc2cccc(C(=O)N3CCCC3)c2)c(Cl)c1 | -1.9%
Cc1ccc(N2CCCN(C(=O)c3cc(CC(C)C)n[nH]3)CC2)nn1 | 12.9%
COCCn1nc(C(=O)N2CCN(C)CC2C)ccc1=O (stereo not given) | -4.08%
CC(=O)NC1CCN(C(=O)Nc2cccc(C(F)(F)F)c2)CC1 | 20.6%
Cc1ccc(C)c(Oc2ccc(CNC(=O)C3CNC(=O)N3)cn2)c1 (stereo not given) | -1.21%
O=C(Nc1ccc(-c2csnn2)cc1)N1CC[C@H](O)C1 | -13.4%
COc1cccc(-c2ccc(CNC(=O)c3ccc(=O)n(C)c3)cc2)c1 | 6.19%
CNC(=O)NCCc1csc2ccccc12 | -0.00639%
O=C(NCC1CCN(CCc2ccccc2)C1)NCC1(O)CCC1 (stereo not given) | -3.77%
CCOc1cccc(CCNC(=O)NC2CCc3[nH]ncc3C2)n1 (stereo not given) | 24.3%
CS(=O)(=O)c1cccc(Cl)c1C(=O)NCCN1C(=O)CCC1=O | 16.3%
COc1ccncc1NC(=O)C1(c2ccccc2)CC1 | -8.43%
CN(CCCOc1ccccc1)Cc1nccn1C | -4.56%
Cc1c(C2CCCN(C(=O)c3ccncc3)C2)n2c(nc1=O)CCC2 (stereo not given) | -9.8%
Cc1cnc(C(=O)N2CCCC(c3c(C)c(=O)nc4n3CCC4)C2)cn1 (stereo not given) | -7.55%
COCCN1CCN(Cc2c(C3CCNCC3)[nH]c3ncccc23)CC1 | -2.48%
c1cnc2c(c1)cc([C@@H]1CCCO1)n2CCN1CCOCC1 | 0.0365%
Cc1ccc(CNCc2ccc(N3CCC(CO)CC3)nc2)c(C)c1 | -5.56%
Cc1ccc(CN(Cc2ncc[nH]2)C2CC(C)(C)NC(C)(C)C2)o1 | 9.13%
Cc1ccc([C@]2(O)CC[C@H]3CN(Cc4cccc(F)c4F)C[C@H]32)nc1 | 5.11%
Cc1ccc([C@]2(O)CC[C@H]3CN(Cc4ccccc4F)C[C@H]32)nc1 | -9.24%
CC(C)C(N)C1=N/C(=C2\N=CN=N2)NO1 (stereo not given) | 5.13%
CC(C)CC(N)C1=N/C(=C2\N=CN=N2)NO1 (stereo not given) | 29.4%
